# Experiments:
# Hepatocyte [1] = assay: Hepatoprotective activity against D-GaIN/TNFalpha-induced cell death in mouse hepatocyte at 25 uM relative to control; type: functional
# Hepatocyte [2] = assay: Hepatoprotective activity against D-GaIN/TNFalpha-induced cell death in mouse hepatocyte at 200 uM relative to control; type: functional
# Hepatocyte [3] = assay: Hepatoprotective activity against D-GaIN/TNFalpha-induced cell death in mouse hepatocyte at 100 uM relative to control; type: functional, cell-based; conditions: dose 100 µM
# Hepatocyte [4] = assay: Hepatoprotective activity against D-GaIN/TNFalpha-induced cell death in mouse hepatocyte at 50 uM relative to control; type: functional
# HepG2 [5] = assay: Hepatoprotective activity against H2O2-induced human HepG2 cells assessed as increase in ALT level; type: functional
# HepG2 [6] = assay: Hepatoprotective activity against H2O2-induced human HepG2 cells assessed as increase in AST level; type: functional
# [7] = Cytotoxicity against human HepG2 cells assessed as reduction in cell viability by SRB assay; type: toxicity, cell-based
# [8] = Hepatotoxicity in D-GaIN induced Wistar rat assessed as change in induction of TAT level for 10 days relative to control; type: toxicity; design: concentration or dose not given beside the values; conditions: in vivo, 240 h, time 10 day
# [9] = Hepatotoxicity in D-GaIN induced Wistar rat assessed as change in GTP leakage level for 10 days relative to control; type: toxicity; conditions: in vivo, 240 h, time 10 day
# L02 [10] = assay: Hepatoprotective activity against D-GaIN-induced in human HL7702 cells assessed as cell damage at 10 uM relative to control; type: functional
# Mus musculus [11] = assay: Hepatoprotective activity against D-GaIN/LPS induced liver injury mouse model assessed as reduction in sALT at 100 mg/kg, ip relative to control; type: functional; design: scale not given: the % may be the effect or the level left
# Mus musculus [12] = assay: Hepatoprotective activity against D-GaIN/LPS induced liver injury mouse model assessed as reduction in sAST at 100 mg/kg, ip relative to control; type: functional; design: scale not given: the % may be the effect or the level left
# Hepatocyte [13] = assay: Hepatoprotective activity against H2O2-induced cell damage in rat hepatocyte assessed as reduction in cell growth; type: functional, cell-based
# HepG2 [14] = assay: Hepatoprotective activity against H2O2-induced cell death in human HepG2 cells assessed as reduction in AST level at 20 uM preincubated for 1 hr followed by H2O2-stimulation and measured after 24 hrs; type: functional
# HepG2 [15] = assay: Hepatoprotective activity against H2O2-induced cell death in human HepG2 cells assessed as reduction in ALT level at 20 uM preincubated for 1 hr followed by H2O2-stimulation and measured after 24 hrs; type: functional
# L02 [16] = assay: Protection against D-GalN-induced toxicity in L02 cells […] assessed as reduction in cell growth relative to control; type: functional, Homo sapiens; design: scale not given: the % may be the effect or the level left
# Mus musculus [17] = organism: Mus musculus; assay: Hepatoprotective activity in mouse liver homogenate assessed as inhibition of iron/ascorbate lipid peroxidation at 0.1 mg/mL relative to control; type: functional; design: scale not given: the % may be the effect or the level left
# Mus musculus [18] = organism: Mus musculus; assay: Hepatoprotective activity in mouse liver homogenate assessed as inhibition of iron/ascorbate lipid peroxidation at 5.0 mg/mL relative to control; type: functional; design: scale not given: the % may be the effect or the level left
# Mus musculus [19] = organism: Mus musculus; assay: Hepatoprotective activity against D-GaIN/LPS induced liver injury mouse model assessed as increase in sALT relative to control; type: functional
# Mus musculus [20] = organism: Mus musculus; assay: Hepatoprotective activity against D-GaIN/LPS induced liver injury mouse model assessed as increase in sAST relative to control; type: functional
# Mus musculus [21] = assay: Hepatoprotective activity against D-GaIN/CCl4 induced liver injury mouse model assessed as reduction in GPT level at 30 microg/kg, iv relative to control; type: functional; design: scale not given: the % may be the effect or the level left; conditions: dose 30 µg/kg
smiles,measurement,setting,value
C[C@@]1(CO)CC[C@]2(C(=O)O[C@@H]3O[C@H](CO)[C@@H](O)[C@H](O)[C@H]3O)CC[C@]3(C)[C@H](C=C[C@@H]4[C@@]5(C)C[C@@H](O)[C@H](O)[C@@](C)(CO)[C@@H]5CC[C@]43C)[C@H]2C1,Activity,Hepatocyte [1],15.1%
same,Activity,Hepatocyte [2],8%
same,Activity,Hepatocyte [3],8%
same,Activity,Hepatocyte [4],8%
CC1(C)CC[C@]2(C(=O)O)CC[C@]3(C)[C@H](C=C[C@@H]4[C@@]5(C)C[C@@H](O)[C@H](O)[C@](C)(CO)[C@@H]5CC[C@]43C)[C@H]2C1,Activity,Hepatocyte [1],15.4%
same,Activity,Hepatocyte [3],108.4%
CC1(C)CC[C@]2(C(=O)O)CC[C@]3(C)[C@H](C=C[C@@H]4[C@@]5(C)C[C@@H](O)[C@H](O)[C@@](C)(CO)[C@@H]5CC[C@]43C)[C@H]2[C@@H]1O,Activity,Hepatocyte [2],8%
same,Activity,Hepatocyte [3],8%
same,Activity,Hepatocyte [4],8%
COC(=O)C(C)[C@@H](O)C(=O)C[C@@H](C)[C@H]1C[C@H](O)[C@@]2(C)[C@@H]3C(=O)C[C@H]4C(C)(C)[C@@H](O)CC[C@]4(C)[C@H]3C(=O)C[C@]12C (stereo partly specified),Activity,HepG2 [5],18.51 U/L
same,Activity,HepG2 [6],19.5 U/L
CC1=C[C@@]2(C[C@H]([C@H]3CC[C@@]4(C)[C@@H]5CC[C@H]6C(C)(C)[C@@H](O)C=C[C@@]67C[C@@]57CC[C@]34C)[C@H](O)O2)OC1=O,EC50,[7],37.9 µM
CC1=C[C@@]2(C[C@H]([C@H]3CC[C@@]4(C)[C@@H]5CC[C@H]6C(C)(C)[C@@H](O)C=C[C@@]67C[C@@]57CC[C@]34C)[C@@H](O)O2)OC1=O,EC50,[7],123 µM
C[C@H]1[C@H](C)CC[C@@]2(C)[C@@H]1C1=CC[C@@H]3[C@@]4(C)CC[C@H](O)C(C)(C)[C@@H]4CC[C@@]3(C)[C@]1(C)C[C@@H]2O,Activity,[8],39.8%
same,Activity,[9],46.7%
CC(C)=CCC[C@H](C(=O)O)[C@@H]1CC[C@]2(C)C3=C(CC[C@@]12C)[C@@]1(C)CC[C@@H](O)C(C)(C)[C@@H]1CC3,Activity,L02 [10],30.1%
CC(C)=CCC[C@](C)(O)C1CC[C@]2(C)[C@@H]1[C@H](O[C@H]1O[C@@H](CO[C@H]3O[C@@H](CO)[C@H](O)[C@@H](O)[C@@H]3O)[C@H](O)[C@@H](O)[C@@H]1O)C[C@@H]1[C@@]3(C)CC[C@H](O[C@@H]4O[C@H](CO)[C@@H](O)[C@H](O)[C@H]4O[C@@H]4O[C@H](CO)[C@@H](O)[C@H](O)[C@H]4O)C[C@@H]3CC[C@]12C (stereo partly specified),Activity,Mus musculus [11],33%
same,Activity,Mus musculus [12],40%
CC1=C[C@]2(C=C([C@H]3CC[C@@]4(C)[C@@H]5CC[C@H]6C(C)(C)C(=O)C=C[C@@]67C[C@@]57CC[C@]34C)C(=O)N2)OC1=O,EC50,Hepatocyte [13],126 µM
CC1(C)CC[C@]2(C(=O)O[C@@H]3O[C@H](CO)[C@@H](O)[C@H](O)[C@H]3O)CC[C@]3(C)[C@H](C=C[C@@H]4[C@@]5(C)C[C@@H](O)[C@H](O)[C@@](C)(CO)[C@@H]5CC[C@]43C)[C@H]2[C@@H]1O,Activity,Hepatocyte [2],8%
same,Activity,Hepatocyte [3],8%
same,Activity,Hepatocyte [4],8%
CC1=C[C@]2(C=C([C@H]3CC[C@@]4(C)[C@@H]5CC[C@H]6C(C)(C)C(=O)C=C[C@]67C[C@]57CC[C@]34C)C(=O)N2)OC1=O,EC50,Hepatocyte [13],167 µM
C=C(C)[C@@H]1C[C@H](O)C2=C(C(=O)C[C@]3(C)[C@@H]([C@H](C)CCC(=O)O)CC[C@@]23C)[C@@]1(C)CCC(=O)O,Activity,HepG2 [14],19.09 U/L
same,Activity,HepG2 [15],16.06 U/L
CC(C)=CCC[C@H](C(=O)O)[C@@H]1CC[C@]2(C)C3=C(CC[C@@]12C)[C@@]1(C)CC[C@H](O)C(C)(C)[C@@H]1CC3,Activity,L02 [10],50.5%
C=C(C)[C@@H]1C[C@H](O)C2=C(C(=O)C[C@]3(C)[C@@H]([C@H](C)CCC(=O)O)CC[C@@]23C)[C@@]1(C)CCC(=O)OC,Activity,HepG2 [14],19.09 U/L
same,Activity,HepG2 [15],16.06 U/L
C=C(C)[C@@H]1C[C@H](O)C2=C(C(=O)C[C@]3(C)[C@@H]([C@H](C)CCC(=O)OC)CC[C@@]23C)[C@@]1(C)CCC(=O)OC,Activity,HepG2 [14],19.09 U/L
same,Activity,HepG2 [15],16.06 U/L
CC(=O)[C@H]1CC(=O)[C@@]2(C)C3=C(C(=O)C[C@]12C)[C@@]1(C)CC[C@H](O)C(C)(C)[C@@H]1C[C@@H]3O [LUCIDONE A],Activity,HepG2 [5],17.46 U/L
same,Activity,HepG2 [6],21.18 U/L
CC(C)=CC[C@@H](O)[C@@H](C)[C@H]1CC[C@@]2(C)C3=CC[C@H]4C(C)(C)[C@@H](O)CC[C@]4(C)C3=CC[C@]12C,Activity,HepG2 [14],32.36 U/L
same,Activity,HepG2 [15],23.22 U/L
CC(C)=C[C@H]1C[C@@H]([C@@H]2CC[C@]3(C)C4=CC(=O)[C@H]5C(C)(C)[C@H](O)CC[C@]5(C)[C@H]4CC[C@@]23C)C(=O)O1,Activity,L02 [10],30.4%
CC(C)[C@]1(CO)CC[C@@H]([C@H]2[C@H](O)C[C@]3(C)[C@@H]2CC[C@@H]2[C@@]4(C)CC[C@H](O[C@@H]5O[C@H](CO)[C@@H](O)[C@H](O)[C@H]5O[C@@H]5O[C@H](CO)[C@@H](O)[C@H](O)[C@H]5O)C(C)(C)[C@@H]4CC[C@]23C)O1,Activity,L02 [16],22.2%
CC1(C)CC[C@]2(C(=O)O)CC[C@]3(C)[C@H](C=C[C@@H]4[C@@]5(C)C[C@@H](O)[C@H](O)C(C)(C)[C@@H]5[C@H](O)C[C@]43C)[C@H]2[C@@H]1O,Activity,Hepatocyte [1],15.4%
same,Activity,Hepatocyte [3],24.4%
CC1(C)CC[C@]2(C(=O)O)CC[C@]3(C)C(=CC[C@@H]4[C@@]5(C)C[C@@H](O)[C@@H](O)C(C)(C)[C@@H]5CC[C@]43C)[C@@H]2C1,Activity,Mus musculus [17],16.8%
same,Activity,Mus musculus [18],52.7%
CC(C)(O)[C@@H]1CC[C@@H]([C@H]2[C@H](O)C[C@]3(C)[C@@H]2CC[C@@H]2[C@@]4(C)CC[C@H](O[C@@H]5O[C@H](CO)[C@@H](O)[C@H](O)[C@H]5O[C@@H]5O[C@H](CO)[C@@H](O)[C@H](O)[C@H]5O)C(C)(C)[C@@H]4CC[C@]23C)O1,Activity,L02 [16],69.5%
CC1(C)CC[C@]2(C(=O)O)CC[C@]3(C)[C@H](C=C[C@@H]4[C@@]5(C)C[C@@H](O)[C@H](O)C(C)(C)[C@@H]5CC[C@]43C)[C@H]2[C@@H]1O,Activity,Hepatocyte [1],15.4%
same,Activity,Hepatocyte [3],32.9%
C[C@H]1[C@H](C)CC[C@@]2(C)[C@@H]1C1=CC[C@@H]3[C@@]4(C)CC[C@@H](O)C(C)(C)[C@@H]4CC[C@@]3(C)[C@]1(C)C[C@@H]2O,Activity,[8],48%
same,Activity,[9],22.7%
CC(C)=CCC[C@H](C(=O)O)[C@@H]1CC[C@]2(C)C3=C(CC[C@@]12C)[C@@]1(C)CCC(=O)C(C)(C)[C@@H]1CC3=O,Activity,L02 [10],25.6%
CC(C)=CCC[C@](C)(O)C1CC[C@]2(C)[C@@H]1[C@H](O[C@H]1O[C@@H](CO[C@H]3OC[C@H](O)[C@@H](O)[C@@H]3O)[C@H](O)[C@@H](O)[C@@H]1O)C[C@@H]1[C@@]3(C)CC[C@H](O[C@@H]4O[C@H](CO)[C@@H](O)[C@H](O)[C@H]4O[C@@H]4O[C@H](CO)[C@@H](O)[C@H](O)[C@H]4O)C[C@@H]3CC[C@]12C (stereo partly specified),Activity,Mus musculus [19],33%
same,Activity,Mus musculus [20],40%
same,Activity,Mus musculus [11],33%
same,Activity,Mus musculus [12],40%
CC(C)=CCC[C@](C)(O)C1CC[C@]2(C)[C@@H]1[C@H](O[C@H]1O[C@@H](CO[C@@H]3O[C@@H](CO)[C@H](O)[C@H]3O)[C@H](O)[C@@H](O)[C@@H]1O)C[C@@H]1[C@@]3(C)CC[C@H](O[C@@H]4O[C@H](CO)[C@@H](O)[C@H](O)[C@H]4O[C@@H]4O[C@H](CO)[C@@H](O)[C@H](O)[C@H]4O)C[C@@H]3CC[C@]12C (stereo partly specified),Activity,Mus musculus [19],89%
same,Activity,Mus musculus [20],87%
same,Activity,Mus musculus [11],33%
same,Activity,Mus musculus [12],40%
C=C(C)[C@@H]1CC[C@]2(C(=O)O)CC[C@]3(C)[C@H](CC[C@@H]4[C@@]5(C)C[C@@H](O)[C@H](O)C(C)(C)[C@@H]5CC[C@]43C)[C@@H]12,Activity,Mus musculus [17],13.7%
CC(C)=CCC[C@](C)(O)[C@H]1CC[C@]2(C)[C@@H]1[C@H](O)C[C@@H]1[C@@]3(C)CC[C@H](O)C(C)(C)[C@@H]3[C@@H](O[C@@H]3O[C@H](CO)[C@@H](O)[C@H](O)[C@H]3O)C[C@]12C [GINSENOSIDE RH1],Activity,Mus musculus [21],72%
same,Activity,Mus musculus [19],93%
same,Activity,Mus musculus [20],90%
CC(=O)N[C@@H](CS)C(=O)O [ACETYLCYSTEINE],EC50,Hepatocyte [13],106 µM
C/C(=C\CC[C@@H](C)[C@H]1CC[C@@]2(C)C3=CC[C@H]4C(C)(C)[C@@H](O)CC[C@]4(C)C3=CC[C@]12C)CO [GANODEROL B],Activity,HepG2 [5],18.97 U/L
same,Activity,HepG2 [6],26.42 U/L
